The test system of this assay is Mycobacterium tuberculosis. It counts as cell-based.

SMILES strings stand for the structures. In brackets after ≈: the same amount, converted by molar mass. Several values for one entry are separate records, joined by “and”; a condition that tells them apart may be missing. Equal values may be shown once.

Consider `Cc1nnc(SCC2=C(C(=O)O)N3C(=O)[C@@H](NC(=O)Cn4cnnn4)[C@H]3SC2)s1` [Cefazolin], for which the Minimum inhibitory concentration is 125 µg/mL and 250 µg/mL.
The compound `O=C(Cc1cccs1)N[C@@H]1C(=O)N2C(C(=O)[O-])=C(C[n+]3ccccc3)CS[C@H]12` [Cephaloridine] had a Minimum inhibitory concentration of 63 µg/mL (≈ 152 µM).
